{"source": "patent US4477659A", "about": "“Cephalosporin compound” (Asahi Kasei Kogyo Kabushiki Kaisha, priority 1981, dated 1984)", "key": {"E. Coli NIHJ-JC2": {"tested_on": "E. Coli NIHJ-JC2", "assay": "MIC (Table 4)", "assay_type": "cell-based", "details": "10^8 cells/ml; unit assumed", "excerpt": "(§1) | MIC Value (10^8 cells/ml)"}, "Staph. aureus ATCC 6538p": {"tested_on": "Staph. aureus ATCC 6538p", "assay": "MIC (Table 4)", "assay_type": "cell-based", "details": "10^8 cells/ml; unit assumed", "excerpt": "as §1"}, "[1]": {"tested_on": "Salm enteritidis Gaertner", "assay": "MIC (Table 4)", "assay_type": "cell-based", "details": "10^8 cells/ml; unit assumed", "excerpt": "as §1"}, "[2]": {"tested_on": "Klebs. pneumoniae ATCC 10031", "assay": "MIC (Table 4)", "assay_type": "cell-based", "details": "10^8 cells/ml; unit assumed", "excerpt": "as §1"}, "E. Coli W3630 ps 3": {"tested_on": "E. Coli W3630 ps 3", "assay": "MIC (Table 4)", "assay_type": "cell-based", "details": "10^8 cells/ml; unit assumed", "excerpt": "as §1"}, "E. Coli W3630": {"tested_on": "E. Coli W3630", "assay": "MIC (Table 4)", "assay_type": "cell-based", "details": "10^8 cells/ml; unit assumed", "excerpt": "as §1"}, "Staph. aureus 0003": {"tested_on": "Staph. aureus 0003", "assay": "MIC (Table 4)", "assay_type": "cell-based", "details": "10^8 cells/ml; unit assumed", "excerpt": "as §1"}, "Staph. aureus MS 27": {"tested_on": "Staph. aureus MS 27", "assay": "MIC (Table 4)", "assay_type": "cell-based", "details": "10^8 cells/ml; unit assumed", "excerpt": "as §1"}, "[3]": {"assay": "Absorption test, oral, rats, solution in buffer pH 7 (Example 16)", "assay_type": "in vivo, Male Wistar rats", "details": "blood, 50 mg/kg oral, rat, average of 6, read-out: Blood Concentration of the Compound", "protocol": "The absorption test of the compounds as obtained in Examples 1-11 were tested by the following method.\nMale Wistar rats weighing 180-250 g were fed with only water overnight. The next day the rats were orally administered with 50 mg/kg of a test compound which was dissolved in a buffer solution having pH of 7. The concentration of the compound in blood of the tested animals (one group consisting of 6 animals) was measured 0.5, 1, 2 and 4 hours after the administration by Bioassay method by using Bacillus subtilis ATCC 6633 strain as an indicator bacteria. In the measurement, an ordinary culture medium was employed, and the preparation of the standard solution and other method were carried out in according to Japanese Antibiotical Pharmaceutical Standards. Further, the concentration of the compound in blood was also measured by high performance liquid chromatography. The blood concentration shown below was an average value of each animal group."}}, "data": [{"compound": "CC(=O)OCC1=C(C(=O)O)N2C(=O)[C@@H](NC(=O)CSc3nc(C[C@H](N)C(=O)O)c[nH]3)[C@H]2SC1", "note": "[Example 1, 7-β-[4-(2'-amino-2'-carboxy)ethylimidazol-2-yl-thioacetamido]-3-acetoxymethyl-3-cephem-4-carboxylic acid]", "values": [{"measurement": "MIC Value", "setting": "E. Coli NIHJ-JC2", "result": 50, "unit": "µg/mL"}, {"measurement": "MIC Value", "setting": "Staph. aureus ATCC 6538p", "result": 3.1, "unit": "µg/mL"}, {"measurement": "MIC Value", "setting": "[1]", "result": 100, "unit": "µg/mL"}, {"measurement": "MIC Value", "setting": "[2]", "result": 25, "unit": "µg/mL"}, {"measurement": "MIC Value", "setting": "E. Coli W3630 ps 3", "result": 100, "unit": "µg/mL"}, {"measurement": "MIC Value", "setting": "E. Coli W3630", "result": 100, "unit": "µg/mL"}, {"measurement": "MIC Value", "setting": "Staph. aureus 0003", "result": 12.5, "unit": "µg/mL"}, {"measurement": "MIC Value", "setting": "Staph. aureus MS 27", "result": 12.5, "unit": "µg/mL"}, {"measurement": "concentration at 0.5 h", "setting": "[3]; 0.5 hr.", "result": 3600, "unit": "ng/mL"}, {"measurement": "concentration at 1 h", "setting": "[3]; 1 hr.", "result": 1600, "unit": "ng/mL"}, {"measurement": "concentration at 2 h", "setting": "[3]; 2 hrs.", "result": 800, "unit": "ng/mL"}, {"measurement": "concentration at 4 h", "setting": "[3]; 4 hrs.", "result": 500, "unit": "ng/mL"}]}]}
